Assay results as given in patent publication US8741897B2, “Glucocorticoid mimetics, methods of making them, pharmaceutical compositions and uses thereof” (Boehringer Ingelheim Pharmaceuticals Inc., priority 2003, dated 2014).

What follows are molecules tested against T1, human glucocorticoid receptor (GR) complex (Homo sapiens, UniProt P04150) (assay: Glucocorticoid receptor competitive binding assay (fluorescence polarization, TAMRA-labeled dexamethasone probe)). Conditions: compounds of Formula (IA).
T1 construct: made in house; host or cells: insect expression system (baculovirus lysate)
T1 sequence (P04150 1-777): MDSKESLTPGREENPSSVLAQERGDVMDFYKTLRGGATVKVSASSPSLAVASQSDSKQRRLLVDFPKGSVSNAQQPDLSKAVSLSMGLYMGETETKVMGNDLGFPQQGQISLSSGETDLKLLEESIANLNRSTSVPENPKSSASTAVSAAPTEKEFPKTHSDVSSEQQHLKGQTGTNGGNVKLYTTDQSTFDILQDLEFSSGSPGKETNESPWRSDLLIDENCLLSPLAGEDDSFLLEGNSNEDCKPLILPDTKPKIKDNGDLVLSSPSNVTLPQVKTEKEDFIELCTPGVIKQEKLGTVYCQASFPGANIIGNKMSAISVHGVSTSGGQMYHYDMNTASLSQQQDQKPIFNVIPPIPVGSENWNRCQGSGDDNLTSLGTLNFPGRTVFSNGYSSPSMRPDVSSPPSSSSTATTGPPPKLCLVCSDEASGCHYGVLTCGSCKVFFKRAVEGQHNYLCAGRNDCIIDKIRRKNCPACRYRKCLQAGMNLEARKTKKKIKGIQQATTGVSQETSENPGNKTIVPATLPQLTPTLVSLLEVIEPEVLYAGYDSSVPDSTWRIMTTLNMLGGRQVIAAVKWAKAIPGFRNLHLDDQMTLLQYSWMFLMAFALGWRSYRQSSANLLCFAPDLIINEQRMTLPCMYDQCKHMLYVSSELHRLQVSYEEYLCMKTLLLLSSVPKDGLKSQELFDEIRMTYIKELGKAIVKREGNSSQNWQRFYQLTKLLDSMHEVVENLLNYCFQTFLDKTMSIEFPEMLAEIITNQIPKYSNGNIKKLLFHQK
Description: Compounds of the invention were evaluated for binding to the steroid receptor by a fluorescence polarization competitive binding assay. Detailed descriptions for preparation of recombinant glucocorticoid receptor (GR) complex used in the assay is described in U.S. patent application Pub.
A. Glucocorticoid Receptor Competitive Binding Assay
Step 1. Characterization of the Fluorescent Probe
The wavelengths for maximum excitation and emission of the fluorescent probe should first be measured. An example of such a probe is rhodamine (TAMRA)-labeled dexamethasone.
The affinity of the probe for the steroid receptor was then determined in a titration experiment. The fluorescence polarization value of the probe in assay buffer was measured on an SLM-8100 fluorometer using the excitation and emission maximum values described above. Aliquots of expression vector lysate were added and fluorescence polarization was measured after each addition until no further change in polarization value was observed. Non-linear least squares regression analysis was used to calculate the dissociation constant of the probe from the polarization values obtained for lysate binding to the probe.
Step 2. Screening for Inhibitors of Probe Binding
This assay uses fluorescence polarization (FP) to quantitate the ability of test compounds to compete with tetramethyl rhodamine (TAMRA)-labeled dexamethasone for binding to a human glucocorticoid receptor (GR) complex prepared from an insect expression system. The assay buffer was: 10 mM TES, 50 mM KCl, 20 mM Na2MoO4.2H2O, 1.5 mM EDTA, 0.04% w/v CHAPS, 10% v/v glycerol, 1 mM dithiothreitol, pH 7.4. Test compounds were dissolved to 1 mM in neat DMSO and then further diluted to 10× assay concentration in assay buffer supplemented with 10% v/v DMSO. Test compounds were serially diluted at 10× assay concentrations in 10% DMSO-containing buffer in 96-well polypropylene plates. Binding reaction mixtures were prepared in 96-well black Dynex microtiter plates by sequential addition of the following assay components to each well: 15 μL of 10× test compound solution, 85 μL of GR-containing baculovirus lysate diluted 1:170 in assay buffer, and 50 μL of 15 nM TAMRA-labeled dexamethasone. Positive controls were reaction mixtures containing no test compound; negative controls (blanks) were reaction mixtures containing 0.7 μM to 2 μM dexamethasone. […] IC50 values were determined by iterative non-linear curve fitting of the FP signal data to a 4-parameter logistic equation.

Row | SMILES | activity in the GR binding assay
1 | COc1ccc(F)cc1C(C)(C)CC(O)(Cc1ccncc1)C(F)(F)F (stereo not drawn) [1,1,1-Trifluoro-4-(5-fluoro-2-methoxyphenyl)-4-methyl-2-pyridin-4-ylmethylpentan-2-ol] | potent activity
2 | CC(C)(CC(O)(Cc1cc2cc(C(=O)O)ccc2[nH]1)C(F)(F)F)c1cc(Br)cc2c1OCC2 (stereo not drawn) [2-[4-(5-Bromo-2,3-dihydrobenzofuran-7-yl)-2-hydroxy-4-methyl-2-trifluoromethylpentyl]-1H-indole-5-carboxylic acid] | potent activity
3 | COc1ccc(F)cc1C(C)(C)CC(O)(Cc1cc2cc(C(=O)N3CCC(=O)CC3)ccc2[nH]1)C(F)(F)F (stereo not drawn) [1-{2-[4-(5-Fluoro-2-methoxyphenyl)-2-hydroxy-4-methyl-2-trifluoromethylpentyl]-1H-indole-5-carbonyl}piperidin-4-one] | potent activity
4 | COc1ccc(F)cc1C(C)(C)CC(O)(Cc1cc2cnccc2o1)C(F)(F)F (stereo not drawn) [1,1,1-Trifluoro-4-(5-fluoro-2-methoxyphenyl)-2-furo[3,2-c]pyridin-2-ylmethyl-4-methylpentan-2-ol] | potent activity
5 | CC(C)(CC(O)(Cc1cc2cnccc2s1)C(F)(F)F)c1cc(Cl)cc2c1OCC2 (stereo not drawn) [4-(5-Chloro-2,3-dihydrobenzofuran-7-yl)-1,1,1-trifluoro-4-methyl-2-thieno[3,2-c]pyridin-2-ylmethylpentan-2-ol] | potent activity
6 | CC(C)(CC(O)(Cc1cc2ccccc2[nH]1)C(F)(F)F)c1cccc(-c2ccccc2)c1 (stereo not drawn) [4-Biphenyl-3-yl-1,1,1-trifluoro-2-(1H-indol-2-ylmethyl)-4-methylpentan-2-ol] | potent activity
7 | COc1ccc(F)cc1C(C)(C)CC(O)(Cc1cc(Cl)nc2ccc(Cl)cc12)C(F)(F)F (stereo not drawn) [2-(2,6-Dichloroquinolin-4-ylmethyl)-1,1,1-trifluoro-4-(5-fluoro-2-methoxyphenyl)-4-methylpentan-2-ol] | potent activity
8 | COc1ccc(F)cc1C(C)(C)CC(O)(Cn1ccc2cccnc21)C(F)(F)F (stereo not drawn) [1,1,1-Trifluoro-4-(5-fluoro-2-methoxyphenyl)-4-methyl-2-pyrrolo[2,3-b]pyridin-1-ylmethylpentan-2-ol] | potent activity
9 | COc1ccc(C)cc1C(C)(C)CC(O)(Cc1cc2c(C)cc(C#N)cc2[nH]1)C(F)(F)F (stereo not drawn) [2-[2-Hydroxy-4-(2-methoxy-5-methylphenyl)-4-methyl-2-trifluoromethylpentyl]-4-methyl-1H-indole-6-carbonitrile] | potent activity
10 | CC(C)(CC(O)(Cc1cc2ccc(C(N)=O)cc2[nH]1)C(F)(F)F)c1cc(F)ccc1O (stereo not drawn) [2-[4-(5-Fluoro-2-hydroxyphenyl)-2-hydroxy-4-methyl-2-trifluoromethylpentyl]-1H-indole-6-carboxylic acid amide] | potent activity
11 | Cc1ccc(F)cc1C(C)(C)CC(O)(Cc1cc2cc(=O)n(C)cc2[nH]1)C(F)(F)F (stereo not drawn) [2-[4-(5-Fluoro-2-methylphenyl)-2-hydroxy-4-methyl-2-trifluoromethylpentyl]-6-methyl-1,6-dihydropyrrolo[2,3-c]pyridin-5-one] | potent activity
12 | CC(C)(CC(O)(Cc1cc2ccc(C(=O)N3CCOCC3)cc2[nH]1)C(F)(F)F)c1cc(F)ccc1O (stereo not drawn) [{2-[4-(5-Fluoro-2-hydroxyphenyl)-2-hydroxy-4-methyl-2-trifluoromethylpentyl]-1H-indol-6-yl}morpholin-4-ylmethanone] | potent activity
13 | COc1ccc(F)cc1C(C)(C)CC(O)(Cn1ccc2ncccc21)C(F)(F)F (stereo not drawn) [1,1,1-Trifluoro-4-(5-fluoro-2-methoxyphenyl)-4-methyl-2-pyrrolo[3,2-b]pyridin-1-ylmethylpentan-2-ol] | potent activity
14 | CC(C)(CC(O)(Cc1ccnc2ccccc12)C(F)(F)F)c1ccncc1 (stereo not drawn) [1,1,1-Trifluoro-4-methyl-4-pyridin-4-yl-2-quinolin-4-ylmethylpentan-2-ol] | potent activity
15 | COc1ccc(F)cc1C(C)(C)CC(O)(Cc1cc2nc(C)ncc2[nH]1)C(F)(F)F (stereo not drawn) [1,1,1-Trifluoro-4-(5-fluoro-2-methoxyphenyl)-4-methyl-2-(2-methyl-5H-pyrrolo[3 ,2-d]pyrimidin-6-ylmethyl)pentan-2-ol] | potent activity
16 | CNC(=O)c1ccc2[nH]c(CC(O)(CC(C)(C)c3cc(F)ccc3OC)C(F)(F)F)cc2c1 (stereo not drawn) [2-[4-(5-Fluoro-2-methoxyphenyl)-2-hydroxy-4-methyl-2-trifluoromethylpentyl]-1H-indole-5-carboxylic acid methylamide] | potent activity
17 | COc1ccc(F)cc1C(C)(C)CC(O)(Cc1cc2ccccc2s1)C(F)(F)F (stereo not drawn) [2-Benzo[b]thiophen-2-ylmethyl-1,1,1-trifluoro-4-(5-fluoro-2-methoxyphenyl)-4-methylpentan-2-ol] | potent activity
18 | COc1ccc(F)cc1C(C)(C)CC(O)(Cc1cc2cc(C(=O)NCCO)ccc2[nH]1)C(F)(F)F (stereo not drawn) [2-[4-(5-Fluoro-2-methoxyphenyl)-2-hydroxy-4-methyl-2-trifluoromethylpentyl]-1H-indole-5-carboxylic acid (2-hydroxyethyl)amide] | potent activity
19 | COc1ccc(F)cc1C(C)(C)CC(O)(Cc1cc2cnccc2s1)C(F)(F)F (stereo not drawn) [1,1,1-Trifluoro-4-(5-fluoro-2-methoxyphenyl)-4-methyl-2-thieno[3,2-c]pyridin-2-ylmethylpentan-2-ol] | potent activity
20 | Cc1cccc2c(CC(O)(CC(C)(C)c3cc(F)ccc3O)C(F)(F)F)cc(Cl)nc12 (stereo not drawn) [2-[3-(2-Chloro-8-methylquinolin-4-ylmethyl)-4,4,4-trifluoro-3-hydroxy-1,1-dimethylbutyl]-4-fluorophenol] | potent activity
21 | COc1ccc(F)cc1C(C)(C)CC(O)(Cc1cc2ccc(C(=O)N(C)C)cc2[nH]1)C(F)(F)F (stereo not drawn) [2-[4-(5-Fluoro-2-methoxyphenyl)-2-hydroxy-4-methyl-2-trifluoromethylpentyl]-1H-indole-6-carboxylic acid dimethylamide] | potent activity

What follows are molecules tested on glucocorticoid receptor function (assay: one or more of the above assays (GR binding and glucocorticoid receptor cell assays: aromatase, IL-6, TAT, MMTV-Luc, IL-8, ICAM-Luc)). Conditions: assay not specified per compound.
Assay type: cell-based

Row | SMILES | activity as agonists of the glucocorticoid receptor function in one or more of the above assays
22 | COc1ccc(-c2cncnc2)cc1C(C)(C)CC(O)(Cc1cc2cc(O)ncc2[nH]1)C(F)(F)F (stereo not drawn) [2-[2-Hydroxy-4-(2-methoxy-5-pyrimidin-5-ylphenyl)-4-methyl-2-trifluoromethylpentyl]-1H-pyrrolo[2,3-c]pyridin-5-ol] | potent agonists
23 | COc1ccc(F)cc1C(C)(C)CC(O)(Cc1cc2cnccc2[nH]1)C(C)(C)C (stereo not drawn) [5-(5-Fluoro-2-methoxyphenyl)-2,2,5-trimethyl-3-(1H-pyrrolo[3,2-c]pyridin-2-ylmethyl)hexan-3-ol] | agonists
24 | COc1ccc(-c2cncnc2)cc1C(C)(C)CC(O)(Cc1cc2cc(N(C)C)ncc2[nH]1)C(F)(F)F (stereo not drawn) [2-(5-Dimethylamino-1H-pyrrolo[2,3-c]pyridin-2-ylmethyl)-1,1,1-trifluoro-4-(2-methoxy-5-pyrimidin-5-ylphenyl)-4-methylpentan-2-ol] | potent agonists
